Patent publication US12544395B2, “Combination compositions comprising a beta-lactamase inhibitor and uses thereof” (priority 2018, dated 2026)

Assays:
Assay type in all cases: cell-based
E. coli 1924 = assay: Broth microdilution MIC (strain enzymes: TEM-12)
E. coli BAS 1 = assay: Broth microdilution MIC (strain enzymes: none detected)
E. coli 3327 = assay: Broth microdilution MIC (strain enzymes: TEM-1, SHV-12)
K. pneumoniae ESBL 8 #2 = assay: Broth microdilution MIC (strain enzymes: SHV-12, TEM-1)
K. pneumoniae ESBL 8 #1 = assay: Broth microdilution MIC (strain enzymes: TEM-1, SHV-12)

## CCC(=O)N[C@H]1Cc2cccc(C(=O)O)c2OB1O [Compound 2, (R)-2-hydroxy-3-propionamido-3,4-dihydro-2H-benzo[e][1,2]oxaborinine-8-carboxylic acid]
E. coli 1924; with inhibitor at 1 μg/mL
  MIC of cefixime (CFM): 0.5 mg/L
  MIC of ceftibuten (CTB): 0.125 mg/L
E. coli 1924; with inhibitor at 2 μg/mL
  MIC of cefalexin (LEX): 0.25 mg/L
  MIC of cefdinir (CDR): 0.25 mg/L
  MIC of cefixime (CFM): 0.5 mg/L
  MIC of ceftibuten (CTB): 0.25 mg/L
E. coli 1924; with inhibitor at 4 μg/mL
  MIC of cefalexin (LEX): 0.25 mg/L
  MIC of cefdinir (CDR): 0.25 mg/L
  MIC of cefixime (CFM): 0.25 mg/L
  MIC of ceftibuten (CTB): 0.125 mg/L
E. coli BAS 1; with inhibitor at 1 μg/mL
  MIC of cefalexin (LEX): 1 mg/L
  MIC of cefdinir (CDR): 1 mg/L
  MIC of cefixime (CFM): 8 mg/L
  MIC of ceftibuten (CTB): 1 mg/L
E. coli BAS 1; with inhibitor at 2 μg/mL
  MIC of cefalexin (LEX): 1 mg/L
  MIC of cefdinir (CDR): 1 mg/L
  MIC of cefixime (CFM): 2 mg/L
  MIC of ceftibuten (CTB): 1 mg/L
E. coli BAS 1; with inhibitor at 4 μg/mL
  MIC of cefalexin (LEX): 2 mg/L
  MIC of cefdinir (CDR): 2 mg/L
  MIC of cefixime (CFM): 1 mg/L
  MIC of ceftibuten (CTB): 0.5 mg/L
E. coli 3327; with inhibitor at 1 μg/mL
  MIC of cefalexin (LEX): 0.5 mg/L
  MIC of cefdinir (CDR): 0.5 mg/L
  MIC of cefixime (CFM): 1 mg/L
  MIC of ceftibuten (CTB): 0.25 mg/L
E. coli 3327; with inhibitor at 2 μg/mL
  MIC of cefalexin (LEX): 0.5 mg/L
  MIC of cefdinir (CDR): 0.5 mg/L
  MIC of cefixime (CFM): 0.5 mg/L
  MIC of ceftibuten (CTB): 0.25 mg/L
E. coli 3327; with inhibitor at 4 μg/mL
  MIC of cefalexin (LEX): 0.5 mg/L
  MIC of cefdinir (CDR): 0.5 mg/L
  MIC of cefixime (CFM): 0.5 mg/L
  MIC of ceftibuten (CTB): 0.25 mg/L
K. pneumoniae ESBL 8 #2; with inhibitor at 1 μg/mL
  MIC of cefalexin (LEX): 0.5 mg/L
  MIC of cefdinir (CDR): 0.5 mg/L
  MIC of cefixime (CFM): 2 mg/L
  MIC of ceftibuten (CTB): 0.125 mg/L
K. pneumoniae ESBL 8 #2; with inhibitor at 2 μg/mL
  MIC of cefalexin (LEX): 0.25 mg/L
  MIC of cefdinir (CDR): 0.25 mg/L
  MIC of cefixime (CFM): 1 mg/L
  MIC of ceftibuten (CTB): 0.125 mg/L
K. pneumoniae ESBL 8 #2; with inhibitor at 4 μg/mL
  MIC of cefalexin (LEX): 0.25 mg/L
  MIC of cefdinir (CDR): 0.25 mg/L
  MIC of cefixime (CFM): 0.5 mg/L
  MIC of ceftibuten (CTB): 0.06 mg/L
K. pneumoniae ESBL 8 #1; with inhibitor at 1 μg/mL
  MIC of cefalexin (LEX): 0.25 mg/L
  MIC of cefdinir (CDR): 0.25 mg/L
  MIC of cefixime (CFM): 2 mg/L
  MIC of ceftibuten (CTB): 0.25 mg/L
K. pneumoniae ESBL 8 #1; with inhibitor at 2 μg/mL
  MIC of cefalexin (LEX): 0.125 mg/L
  MIC of cefdinir (CDR): 0.125 mg/L
  MIC of cefixime (CFM): 0.5 mg/L
  MIC of ceftibuten (CTB): 0.125 mg/L
K. pneumoniae ESBL 8 #1; with inhibitor at 4 μg/mL
  MIC of cefalexin (LEX): 0.25 mg/L
  MIC of cefdinir (CDR): 0.25 mg/L
  MIC of cefixime (CFM): 0.25 mg/L
  MIC of ceftibuten (CTB): 0.06 mg/L
